Experimental data published in ChEMBL document CHEMBL5150046, “Discovery of a Series of 5-Amide-1H-pyrazole-3-carboxyl Derivatives as Potent P2Y14R Antagonists with Anti-Inflammatory Characters” (J Med Chem, 2022).
In brackets after ≈: the same amount, converted by molar mass. Activity calls are given as the source filed them. The rule behind the calls is not given here.

Key:
[1] = molecular target: T1, P2Y purinoceptor 14 (Homo sapiens) (UniProt Q15391)
T1 sequence (whole entry): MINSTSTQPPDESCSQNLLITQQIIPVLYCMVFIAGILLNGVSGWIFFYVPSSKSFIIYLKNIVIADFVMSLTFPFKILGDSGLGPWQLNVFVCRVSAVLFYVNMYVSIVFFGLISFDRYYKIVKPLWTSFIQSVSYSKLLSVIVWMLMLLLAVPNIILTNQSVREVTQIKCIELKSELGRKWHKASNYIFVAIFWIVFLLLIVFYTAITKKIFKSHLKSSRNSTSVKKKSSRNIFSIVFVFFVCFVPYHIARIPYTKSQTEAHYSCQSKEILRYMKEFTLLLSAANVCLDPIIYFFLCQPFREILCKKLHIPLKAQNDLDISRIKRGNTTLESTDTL

[2] = Metabolic stability in human liver microsomes assessed as half life at 2 ug/ml preincubated for 5 mins followed by NADPH addition and measured upto 45 mins by LC-MS/MS analysis; type: ADME, Microsome; settings: dose 2 µg/ml, time < 50 min
[3] = Oral bioavailability in Sprague-Dawley rat at 10 mg/kg measured for 24 hrs; type: ADME, organism-based; settings: in vivo
[4] = Half life in Sprague-Dawley rat at 10 mg/kg, po measured for 24 hrs; type: ADME, organism-based; settings: in vivo
[5] = Metabolic stability in rat liver microsomes assessed as elimination rate constant at 2 ug/ml preincubated for 5 mins followed by NADPH addition and measured upto 45 mins by LC-MS/MS analysis; type: ADME, Microsome; settings: dose 2 µg/ml, time < 50 min
[6] = Metabolic stability in rat liver microsomes assessed as half life at 2 ug/ml preincubated for 5 mins followed by NADPH addition and measured upto 45 mins by LC-MS/MS analysis; type: ADME, Microsome; settings: dose 2 µg/ml, time < 50 min
[7] = Clearance in Sprague-Dawley rat at 10 mg/kg, po measured for 24 hrs; type: ADME, organism-based; settings: in vivo
[8] = Aqueous solubility of the compound in double distilled water at pH 7 incubated for 24 hrs by UV-3000 absorption spectrometry analysis; type: physicochemical
[9] = Tmax in Sprague-Dawley rat at 10 mg/kg, po measured for 24 hrs; type: ADME, organism-based; settings: in vivo
[10] = AUC (0 to infinity) in Sprague-Dawley rat at 2.5 mg/kg, iv measured for 24 hrs; type: ADME, organism-based; design: time 24 hrs, dose 2.5 mg/kg, route iv; settings: in vivo
[11] = Half life in Sprague-Dawley rat at 2.5 mg/kg, iv measured for 24 hrs; type: ADME, organism-based; settings: in vivo
[12] = Aqueous solubility of the compound in simulated gastric fluid without pepsin at pH 1.2 incubated for 24 hrs by UV-3000 absorption spectrometry analysis; type: physicochemical; settings: simulated gi fluid, pH 1.2, 24 h
[13] = Clearance in Sprague-Dawley rat at 2.5 mg/kg, iv measured for 24 hrs; type: ADME, organism-based; settings: in vivo
[14] = Aqueous solubility of the compound in simulated intestinal fluid without trypsin at pH 6.8 incubated for 24 hrs by UV-3000 absorption spectrometry analysis; type: physicochemical; settings: simulated gi fluid, pH 6.8, 24 h
[15] = AUC (0 to infinity) in Sprague-Dawley rat at 10 mg/kg, po measured for 24 hrs; type: ADME, organism-based; design: dose 10 mg/kg, time 24 hrs, route po; settings: in vivo
[16] = Aqueous solubility of the compound in PBS at pH 7.4 incubated for 24 hrs by UV-3000 absorption spectrometry analysis; type: physicochemical
[17] = Metabolic stability in human liver microsomes assessed as elimination rate constant at 2 ug/ml preincubated for 5 mins followed by NADPH addition and measured upto 45 mins by LC-MS/MS analysis; type: ADME, Microsome; settings: dose 2 µg/ml, time < 50 min
[18] = Cmax in Sprague-Dawley rat at 10 mg/kg, po measured for 24 hrs; type: ADME, organism-based; design: time 24 hrs, dose 10 mg/kg, route po; settings: in vivo
P2Y purinoceptor 14 = molecular target: T2, P2Y purinoceptor 14 (Homo sapiens, UniProt Q15391); experiment: Antagonist activity at P2Y14R (unknown origin) expressed in HEK293 cells assessed as inhibition of forskolin-stimulated cAMP accumulation incubated in presence of IBMX by cAMP-glo assay; type: functional, cell-based
T2 sequence (Q15391 whole entry): T1 sequence (whole entry)

P2Y purinoceptor 13 = molecular target: T3, P2Y purinoceptor 13 (Homo sapiens, UniProt Q9BPV8); experiment: Antagonist activity at human P2Y13R expressed in HEK293 cells assessed as inhibition of 2MeSADP-induced cAMP production preincubated for 0.5 hrs followed by 2MeSADP stimulation by cAMP-glo assay; type: functional, cell-based
T3 sequence (Q9BPV8 whole entry): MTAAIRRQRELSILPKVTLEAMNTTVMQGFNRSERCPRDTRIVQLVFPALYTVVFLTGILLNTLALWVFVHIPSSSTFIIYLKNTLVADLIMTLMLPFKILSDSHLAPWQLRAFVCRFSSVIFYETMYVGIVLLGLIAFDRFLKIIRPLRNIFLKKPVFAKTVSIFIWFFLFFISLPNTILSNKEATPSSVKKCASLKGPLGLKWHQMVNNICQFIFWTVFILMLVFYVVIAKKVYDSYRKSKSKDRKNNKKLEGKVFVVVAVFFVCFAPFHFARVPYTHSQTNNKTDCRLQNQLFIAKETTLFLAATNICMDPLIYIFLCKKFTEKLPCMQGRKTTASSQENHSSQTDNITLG

Mus musculus [19] = experiment: Antiinflammatory activity in ICR mouse model of LPS-induced acute peritonitis assessed as reduction in IL-6 level in peritoneal fluid at 5 mg/kg, ip pretreated for 1 hr followed by LPS stimulation and measured after 6 hrs by qRT-PCR analysis; type: functional, organism-based; settings: time 7.0 hrs
Mus musculus [20] = experiment: Antiinflammatory activity in ICR mouse model of LPS-induced acute peritonitis assessed as reduction in IL-1beta level in peritoneal fluid at 5 mg/kg, ip pretreated for 1 hr followed by LPS stimulation and measured after 6 hrs by qRT-PCR analysis; type: functional, organism-based; settings: time 7.0 hrs
Mus musculus [21] = experiment: Antiinflammatory activity in ICR mouse model of LPS-induced acute peritonitis assessed as reduction in TNF-alpha level in peritoneal fluid at 5 mg/kg, ip pretreated for 1 hr followed by LPS stimulation and measured after 6 hrs by qRT-PCR analysis; type: functional, organism-based; settings: time 7.0 hrs
P2Y purinoceptor 4 = P2Y purinoceptor 4 (Homo sapiens, UniProt P51582)
P2Y purinoceptor 4, sequence (P51582 whole entry): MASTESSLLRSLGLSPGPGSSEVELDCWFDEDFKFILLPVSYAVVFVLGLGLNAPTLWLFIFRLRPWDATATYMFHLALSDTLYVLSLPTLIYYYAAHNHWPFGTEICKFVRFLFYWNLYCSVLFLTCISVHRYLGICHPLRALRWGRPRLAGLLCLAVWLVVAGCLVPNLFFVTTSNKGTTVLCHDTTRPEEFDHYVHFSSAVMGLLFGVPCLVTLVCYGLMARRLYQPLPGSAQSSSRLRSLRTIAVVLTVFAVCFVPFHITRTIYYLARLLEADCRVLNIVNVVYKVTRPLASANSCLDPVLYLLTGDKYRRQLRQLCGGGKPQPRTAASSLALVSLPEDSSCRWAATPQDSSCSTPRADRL

[22] = HEK293, filed as antagonist, dose 100.0 nM

O=C(Nc1cc(C(=O)O)nn1Cc1ccc(F)cc1)c1cccc(F)c1
inhibition ([1]; HEK293, dose 100.0 nM): 25.2%

Cc1ccc(C(=O)Nc2cc(C(=O)O)nn2Cc2ccc(F)cc2)cc1
half-life at 2 ug/ml [2]: 21 h
bioavailability [3]: 43.2%
half-life [4]: 4.57 h
k el at 0.75 h, 2 ug/ml [5]: 6.67e-05 s⁻¹
half-life at 2 ug/ml [6]: 2.88 h
CL/F [7]: 32.5 mL/min/kg
solubility ([8]; buffer, pH 7, 24 h): 88.5 µg/mL (≈ 250 µM)
Tmax [9]: 0.25 h
AUC(0-inf) [10]: 2600 ng·h/mL
half-life [11]: 1.82 h
solubility [12]: 85.1 µg/mL (≈ 241 µM)
clearance [13]: 16.3 mL/min/kg
solubility [14]: 202.7 µg/mL (≈ 574 µM)
AUC(0-inf) [15]: 4500 ng·h/mL
solubility ([16]; buffer, pH 7.4, 24 h): 318.7 µg/mL (≈ 902 µM)
k el at 0.75 h, 2 ug/ml [17]: 8.33e-06 s⁻¹
Cmax [18]: 1100 ng/mL

Cc1ccccc1C(=O)Nc1cc(C(=O)O)nn1Cc1ccc(F)cc1
inhibition ([1]; HEK293, dose 100.0 nM): 28.5%

CCc1ccc(C(=O)Nc2cc(C(=O)O)nn2Cc2ccc(F)cc2)cc1
inhibition [1, 22]: 97.9%
IC50 (P2Y purinoceptor 14): 4.65 nM

Cc1ccc(C(=O)Nc2cc(C(=O)O)cc(-c3ccoc3)c2)cc1
solubility at 24 h ([8]; double distilled water, pH 7): 77.6 µg/mL (≈ 241 µM)
solubility [12]: 69.1 µg/mL (≈ 215 µM)
solubility [14]: 471.1 µg/mL (≈ 1470 µM)
solubility at 24 h ([16]; PBS, pH 7.4): 878 µg/mL (≈ 2730 µM)

CC(=O)c1ccc(C(=O)Nc2cc(C(=O)O)nn2Cc2ccc(F)cc2)cc1
inhibition [1, 22]: 98.2%
IC50 (P2Y purinoceptor 14): 3.81 nM

O=C(O)c1cc(NC(=O)c2ccco2)n(Cc2ccc(F)cc2)n1
inhibition [1, 22]: 76%

CCCSc1nc(N[C@@H]2C[C@H]2c2ccc(F)c(F)c2)c2nnn([C@@H]3C[C@H](OCCO)[C@@H](O)[C@H]3O)c2n1 [TICAGRELOR]
IC50 (P2Y purinoceptor 13): 1400 nM

O=C(Nc1cc(C(=O)O)nn1Cc1ccc(F)cc1)c1ccccc1
inhibition [1, 22]: 77.4%

C[C@@H]1C[C@H]2[C@@H]3CCC4=CC(=O)C=C[C@]4(C)[C@@]3(F)[C@@H](O)C[C@]2(C)[C@@]1(O)C(=O)CO
Activity (Mus musculus [19]): Active
Activity (Mus musculus [20]): Active
Activity (Mus musculus [21]): Active

O=C(C1CC1)N1CCc2cc(Br)c(S(=O)(=O)Nc3ccc(Cl)c(C(F)(F)F)c3)cc21
IC50 (P2Y purinoceptor 4): 13600 nM

Cc1ccc(CCC(=O)Nc2cc(C(=O)O)nn2Cc2ccc(F)cc2)cc1
inhibition ([1]; HEK293, dose 100.0 nM): 14.4%

O=C(Nc1cc(C(=O)O)nn1Cc1ccc(F)cc1)c1ccncc1
inhibition ([1]; HEK293, dose 100.0 nM): 32.5%

Cc1ccc(C(=O)Nc2cc(C(=O)O)nn2Cc2cccc(F)c2)cc1
inhibition [1, 22]: 89%
IC50 (P2Y purinoceptor 14): 5.39 nM

Cc1ccc(C(=O)Nc2cc(C(=O)O)nn2Cc2cc(F)c(F)c(F)c2)cc1
inhibition [1, 22]: 90.3%
IC50 (P2Y purinoceptor 14): 4.01 nM

Cc1ccc(C(=O)Nc2cc(CC(=O)O)nn2Cc2ccc(F)cc2)cc1
inhibition [1, 22]: 98.3%
IC50 (P2Y purinoceptor 14): 14.3 nM
